Results reported in US20210009950A1, “ANGIOGENESIS-INDUCING METHOD USING NEURAL STEM CELL” (MEDINNO INC., priority 2018, published 2021).

Tests used:
Groα = assay type: cell-based, human
MCP-1 = assay type: cell-based, human

## [Cl-].[Cl-].[Co+2] [CoCl2]
Groα
  amount of Groα at 24 hours after CoCl2 treatment: increased in a concentration-dependent manner
  amount of Groα at CoCl2 200 μM or more compared to 100 μM: reduced
  amount of Groα, another 24 hours after medium replaced with DMEM/F12: highest when 100 μM CoCl2 was treated
  expression of Gro: increased
Groα; 24 hours
  CoCl2 concentration giving highest Groα at 24 hours after treatment: 500 µM
MCP-1
  amount of MCP-1 at 24 hours after CoCl2 treatment: increased in proportion to the concentration
  amount of MCP-1 at CoCl2 300 μM or more compared to 100 and 200 μM: reduced
  expression level of MCP-1, another 24 hours after medium replaced with DMEM/F12: highest in the case of treatment of 100 μM CoCl2
  expression of MCP-1: increased
